Test results published in patent US20100167329A1, “DEVICE FOR DRUG SCREENING” (Respiratorius AB, priority 2006, published 2010).

System: small human bronchi
Assay: Repeated LTD4 control contractions of tissue sample in the perfusion chamber (long time stability)
Conditions: LTD4 10 nM, 30 min, alternating with LTD4 free solution 60 min; repeated cycles n=8; after 14 h of measurements; FIG. 2
Procedure: One embodiment of the present invention is illustrated in FIG. 1, wherein the chamber 1 is made out of titanium and has a volume of typically 5 mL. The chamber is mounted on a mounting piece 2 of silver, which contains means for controlling the temperature of the chamber. An inlet 3 and outlet 4 allow a continuous flow of a physiological solution through the chamber ensuring a constant concentration of the substances in the chamber. Tissue sample is placed on hooks 8 and the hooks are placed in the chamber in a suitable position so that the tissue sample is completely immersed in the liquid flowing through the chamber. One of the hooks is attached to a force transducer 9 and the other is a fixed hook. Test substances are injected in the liquid prior to the liquid entering the chamber. As the tissue sample reacts to the substances present in the liquid the force transducer register the tension in the tissue sample due to contraction or relaxation. The force transducer is preferably AME801, which is commercially available from Infineon technologies.
A description of embodiments of the device according to the invention is shown in the previous section. In FIG. 2 control contractions in small human bronchi exposed to repeated (n=8) cycles with LTD4 (10 nM, 30 min) and LTD4 free solution (60 min) for 14 hours, are shown. The error bars show a low variance and good repeatability. […]

SMILES: CCCCC/C=C\C\C=C/C=C/C=C/[C@@H](SC[C@H](N)C(=O)NCC(=O)O)[C@@H](O)CCCC(=O)O [LTD4]
- original contraction of the bronchi remaining: ~80%
